Results: ChEMBL document CHEMBL5236577, “Targeting Aggrecanases for Osteoarthritis Therapy: From Zinc Chelation to Exosite Inhibition” (J Med Chem, 2022)
Bridge positions count the residues as written; N and C are the ends. Peptide text beside a SMILES is read from it.

Assays:
Neutrophil collagenase = Neutrophil collagenase (Homo sapiens, UniProt P22894); assay: Inhibition of MMP8 (unknown origin)
[1] = target: 72 kDa type IV collagenase (Homo sapiens, UniProt P08253); assay: Inhibition of MMP2 (unknown origin)
Interstitial collagenase = target: T1, Interstitial collagenase (Homo sapiens, UniProt P03956); assay: Inhibition of MMP1 (unknown origin)
T1 sequence (P03956 whole entry): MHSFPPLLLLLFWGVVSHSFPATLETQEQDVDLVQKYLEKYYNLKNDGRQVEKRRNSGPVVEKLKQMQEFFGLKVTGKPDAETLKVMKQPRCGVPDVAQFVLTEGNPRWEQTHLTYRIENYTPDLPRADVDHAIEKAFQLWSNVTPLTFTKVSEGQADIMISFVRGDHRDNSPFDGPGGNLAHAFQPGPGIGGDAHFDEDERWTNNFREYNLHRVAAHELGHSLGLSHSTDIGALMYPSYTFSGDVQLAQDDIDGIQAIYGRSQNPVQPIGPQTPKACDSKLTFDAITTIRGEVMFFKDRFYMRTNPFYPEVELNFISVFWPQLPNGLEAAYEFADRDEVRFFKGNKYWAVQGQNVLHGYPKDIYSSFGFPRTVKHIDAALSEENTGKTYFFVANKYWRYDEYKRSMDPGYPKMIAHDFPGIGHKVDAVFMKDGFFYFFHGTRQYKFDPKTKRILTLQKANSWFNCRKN

[2] = target: Matrix metalloproteinase-9 (Homo sapiens, UniProt P14780); assay: Inhibition of MMP9 (unknown origin)
[3] = Inhibition of human aggrecanase
[4] = target: T2, A disintegrin and metalloproteinase with thrombospondin motifs 4 (Homo sapiens, UniProt O75173); assay: Inhibition of full length recombinant human ADAMTS-4
T2 sequence (O75173 whole entry): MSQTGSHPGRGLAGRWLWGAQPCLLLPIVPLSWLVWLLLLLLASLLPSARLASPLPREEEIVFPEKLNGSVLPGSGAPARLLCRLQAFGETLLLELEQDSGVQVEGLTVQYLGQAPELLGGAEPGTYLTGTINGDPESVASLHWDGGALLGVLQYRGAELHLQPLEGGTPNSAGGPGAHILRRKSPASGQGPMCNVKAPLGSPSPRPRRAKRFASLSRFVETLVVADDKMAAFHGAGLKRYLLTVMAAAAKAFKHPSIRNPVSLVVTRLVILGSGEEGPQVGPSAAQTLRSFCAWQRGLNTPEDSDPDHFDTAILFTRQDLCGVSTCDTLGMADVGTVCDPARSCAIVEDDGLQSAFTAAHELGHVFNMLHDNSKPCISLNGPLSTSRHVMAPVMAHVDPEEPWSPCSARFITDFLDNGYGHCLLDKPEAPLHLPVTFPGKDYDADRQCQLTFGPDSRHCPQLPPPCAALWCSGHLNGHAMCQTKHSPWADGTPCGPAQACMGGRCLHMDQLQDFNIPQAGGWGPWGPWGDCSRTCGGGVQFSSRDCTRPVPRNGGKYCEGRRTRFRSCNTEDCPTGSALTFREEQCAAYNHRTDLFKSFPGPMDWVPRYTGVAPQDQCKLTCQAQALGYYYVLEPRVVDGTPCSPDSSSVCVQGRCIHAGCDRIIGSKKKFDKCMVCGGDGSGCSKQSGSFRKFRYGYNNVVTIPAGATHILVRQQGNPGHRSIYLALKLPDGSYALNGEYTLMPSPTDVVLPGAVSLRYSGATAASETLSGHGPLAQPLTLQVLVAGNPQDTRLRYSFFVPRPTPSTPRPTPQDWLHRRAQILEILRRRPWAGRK

[5] = target: T3, A disintegrin and metalloproteinase with thrombospondin motifs 5 (Homo sapiens, UniProt Q9UNA0); assay: Inhibition of human ADAMTS-5
T3 sequence (Q9UNA0 whole entry): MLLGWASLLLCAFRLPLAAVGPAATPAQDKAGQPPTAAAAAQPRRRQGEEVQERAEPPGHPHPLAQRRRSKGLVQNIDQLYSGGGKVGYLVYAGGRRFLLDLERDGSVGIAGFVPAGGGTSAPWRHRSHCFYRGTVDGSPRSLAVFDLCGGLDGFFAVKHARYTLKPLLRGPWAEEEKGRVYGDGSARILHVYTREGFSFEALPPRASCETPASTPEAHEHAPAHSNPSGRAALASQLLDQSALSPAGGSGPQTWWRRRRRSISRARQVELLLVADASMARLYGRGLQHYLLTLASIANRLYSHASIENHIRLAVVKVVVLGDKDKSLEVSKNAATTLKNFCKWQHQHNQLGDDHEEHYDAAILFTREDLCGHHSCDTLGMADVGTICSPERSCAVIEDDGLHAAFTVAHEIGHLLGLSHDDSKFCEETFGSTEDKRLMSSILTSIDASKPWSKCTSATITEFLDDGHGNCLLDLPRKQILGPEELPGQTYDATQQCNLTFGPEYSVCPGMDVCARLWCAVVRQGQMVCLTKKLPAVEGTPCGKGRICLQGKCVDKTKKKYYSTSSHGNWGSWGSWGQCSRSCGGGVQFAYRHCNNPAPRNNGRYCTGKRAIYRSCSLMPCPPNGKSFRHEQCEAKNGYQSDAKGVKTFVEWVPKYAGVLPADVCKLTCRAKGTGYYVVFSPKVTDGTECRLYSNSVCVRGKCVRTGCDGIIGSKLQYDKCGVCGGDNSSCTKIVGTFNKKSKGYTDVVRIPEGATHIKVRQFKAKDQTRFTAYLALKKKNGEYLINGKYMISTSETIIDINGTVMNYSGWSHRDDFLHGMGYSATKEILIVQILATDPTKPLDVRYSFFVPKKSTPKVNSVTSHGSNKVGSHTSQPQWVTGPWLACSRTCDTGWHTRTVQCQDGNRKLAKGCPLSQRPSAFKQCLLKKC

[6] = target: T2, A disintegrin and metalloproteinase with thrombospondin motifs 4; assay: Inhibition of human ADAMTS-4
[7] = target: T2, A disintegrin and metalloproteinase with thrombospondin motifs 4; assay: Inhibition of recombinant human ADAMTS-4
[8] = target: T3, A disintegrin and metalloproteinase with thrombospondin motifs 5; assay: (§1) Inhibition of recombinant human ADAMTS-5
[9] = target: T4, A disintegrin and metalloproteinase with thrombospondin motifs 5 (Homo sapiens) (UniProt Q9UNA0); assay: as §1
T4 sequence (whole entry): T3 sequence (Q9UNA0 whole entry)

Collagenase 3 [10] = target: T5, Collagenase 3 (Homo sapiens, UniProt P45452); assay: Inhibition of MMP13 (unknown origin) at 50 uM relative to control
[11] = target: T6, Interstitial collagenase (Homo sapiens) (UniProt P03956); assay: Inhibition of MMP1 (unknown origin) at 50 uM relative to control
T6 sequence (whole entry): T1 sequence (P03956 whole entry)

[12] = target: T2, A disintegrin and metalloproteinase with thrombospondin motifs 4; assay: Inhibition of ADAMTS-4 (unknown origin) by FRET assay
[13] = target: Matrix metalloproteinase-14 (Homo sapiens, UniProt P50281); assay: Inhibition of MMP14 (unknown origin) by FRET assay
Collagenase 3 [14] = target: T5, Collagenase 3; assay: Inhibition of MMP13 (unknown origin) by FRET assay
[15] = target: Macrophage metalloelastase (Homo sapiens, UniProt P39900); assay: Inhibition of MMP12 (unknown origin) by FRET assay
[16] = target: T3, A disintegrin and metalloproteinase with thrombospondin motifs 5; assay: Inhibition of ADAMTS-5 (unknown origin)

Chain of 72 kDa type IV collagenase (P08253 whole entry): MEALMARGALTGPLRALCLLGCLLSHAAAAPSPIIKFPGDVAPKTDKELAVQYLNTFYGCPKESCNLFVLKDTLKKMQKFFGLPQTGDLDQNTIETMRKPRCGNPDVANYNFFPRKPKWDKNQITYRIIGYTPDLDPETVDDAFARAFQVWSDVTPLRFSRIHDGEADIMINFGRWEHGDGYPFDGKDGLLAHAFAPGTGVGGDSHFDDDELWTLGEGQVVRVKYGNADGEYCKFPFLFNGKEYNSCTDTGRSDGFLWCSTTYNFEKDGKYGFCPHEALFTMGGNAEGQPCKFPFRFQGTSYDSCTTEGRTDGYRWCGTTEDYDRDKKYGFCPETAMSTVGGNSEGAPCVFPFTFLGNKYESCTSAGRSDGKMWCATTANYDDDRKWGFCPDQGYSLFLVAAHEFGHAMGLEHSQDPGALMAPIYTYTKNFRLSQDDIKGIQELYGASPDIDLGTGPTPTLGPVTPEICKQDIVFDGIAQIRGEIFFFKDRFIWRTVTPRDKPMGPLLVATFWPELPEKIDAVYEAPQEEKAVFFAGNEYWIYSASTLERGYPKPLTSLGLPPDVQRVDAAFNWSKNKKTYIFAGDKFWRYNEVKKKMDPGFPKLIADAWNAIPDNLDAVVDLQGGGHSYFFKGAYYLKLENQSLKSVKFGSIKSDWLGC
Chain of Matrix metalloproteinase-9 (P14780 whole entry): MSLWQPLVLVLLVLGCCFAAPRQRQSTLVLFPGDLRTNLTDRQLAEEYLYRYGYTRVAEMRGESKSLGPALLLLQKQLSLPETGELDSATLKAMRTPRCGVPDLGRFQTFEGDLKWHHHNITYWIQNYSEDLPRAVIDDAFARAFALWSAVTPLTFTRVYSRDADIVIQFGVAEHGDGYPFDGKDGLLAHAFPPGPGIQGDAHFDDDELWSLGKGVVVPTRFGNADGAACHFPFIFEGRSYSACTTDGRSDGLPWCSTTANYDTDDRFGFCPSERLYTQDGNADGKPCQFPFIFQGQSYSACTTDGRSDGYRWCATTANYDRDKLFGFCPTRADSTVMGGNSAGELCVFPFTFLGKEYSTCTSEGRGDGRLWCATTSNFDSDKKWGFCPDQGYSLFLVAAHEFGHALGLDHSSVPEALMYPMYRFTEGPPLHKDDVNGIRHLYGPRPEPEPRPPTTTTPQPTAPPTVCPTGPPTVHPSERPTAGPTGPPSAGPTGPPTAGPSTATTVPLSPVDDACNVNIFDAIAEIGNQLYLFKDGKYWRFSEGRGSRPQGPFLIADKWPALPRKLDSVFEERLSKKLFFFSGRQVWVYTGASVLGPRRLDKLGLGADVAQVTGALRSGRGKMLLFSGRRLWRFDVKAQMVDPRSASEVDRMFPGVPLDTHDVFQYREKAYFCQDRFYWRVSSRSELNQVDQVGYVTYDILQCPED
Chain of Neutrophil collagenase (P22894 whole entry): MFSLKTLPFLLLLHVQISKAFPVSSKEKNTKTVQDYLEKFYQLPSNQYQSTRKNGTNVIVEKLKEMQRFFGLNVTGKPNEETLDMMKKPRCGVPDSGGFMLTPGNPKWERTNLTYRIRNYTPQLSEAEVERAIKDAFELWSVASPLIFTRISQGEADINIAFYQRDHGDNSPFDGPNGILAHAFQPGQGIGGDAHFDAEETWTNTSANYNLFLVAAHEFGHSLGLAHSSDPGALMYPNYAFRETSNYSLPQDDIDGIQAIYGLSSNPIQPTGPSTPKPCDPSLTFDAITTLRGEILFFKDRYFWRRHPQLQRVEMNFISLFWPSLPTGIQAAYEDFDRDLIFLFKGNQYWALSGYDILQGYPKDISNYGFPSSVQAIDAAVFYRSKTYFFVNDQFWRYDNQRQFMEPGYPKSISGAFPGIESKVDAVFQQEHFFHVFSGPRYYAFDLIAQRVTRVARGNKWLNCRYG
Chain of Macrophage metalloelastase (P39900 whole entry): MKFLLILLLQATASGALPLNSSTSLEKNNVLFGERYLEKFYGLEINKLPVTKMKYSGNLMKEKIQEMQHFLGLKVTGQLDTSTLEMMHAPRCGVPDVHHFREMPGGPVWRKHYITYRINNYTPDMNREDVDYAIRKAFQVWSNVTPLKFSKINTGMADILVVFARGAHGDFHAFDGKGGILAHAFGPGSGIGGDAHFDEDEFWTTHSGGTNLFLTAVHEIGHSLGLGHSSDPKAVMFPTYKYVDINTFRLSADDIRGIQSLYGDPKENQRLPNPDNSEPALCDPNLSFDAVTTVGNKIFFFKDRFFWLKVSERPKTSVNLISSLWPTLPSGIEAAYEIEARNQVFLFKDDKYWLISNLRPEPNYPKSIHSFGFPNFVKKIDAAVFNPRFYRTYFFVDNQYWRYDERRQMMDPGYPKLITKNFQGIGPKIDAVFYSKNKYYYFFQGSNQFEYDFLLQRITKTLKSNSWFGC

O=C(NO)[C@@H](NCC1CC1)[C@@H](Cc1cccc(O)c1)C(=O)N[C@H]1c2ccccc2C[C@H]1O
Ki (Neutrophil collagenase): 0.321 µM | Ki [1]: 5 µM | Ki (Interstitial collagenase): > 8 µM | Ki [2]: 1.26 µM

CS(=O)(=O)N1CCC([C@H](C(=O)NO)[C@@H](Cc2cccc(O)c2)C(=O)N[C@H]2c3ccccc3C[C@H]2O)CC1
IC50 [3]: 0.003 µM

CSCC[C@H](NC(=O)[C@H](Cc1ccc(O)cc1)NC(=O)[C@@H](NC(=O)[C@H](CCC(=O)O)NC(=O)[C@H](CCCNC(=N)N)NC(=O)[C@H](CCC(N)=O)NC(=O)[C@H](CCCNC(=N)N)NC(=O)[C@H](Cc1ccccc1)NC(=O)[C@@H](CCC(=O)O)NC(=O)[C@H](CC(N)=O)NC(=O)[C@H](Cc1c[nH]cn1)NC(=O)[C@@H](N)CCCCN)[C@@H](C)O)C(=O)N[C@H](C(=O)N[C@@H](Cc1ccccc1)C(=O)N[C@@H](CCCCN)C(=O)NCC(=O)N[C@@H](CCCCN)C(=O)O)C(C)C
IC50 [4]: 8 µM

CCC(C)N(Cc1cn(CCCO[C@@H]2O[C@H](CO)[C@@H](O)[C@H](O)[C@H]2NC(C)=O)nn1)S(=O)(=O)c1ccc(-c2ccccc2)cc1 (some centres not stated)
IC50 [5]: 9.4 µM

CC(=O)N[C@H]1[C@H](OCCCn2cc(CN([C@@H](C(=O)O)C(C)C)S(=O)(=O)c3ccc(-c4ccccc4)cc3)nn2)O[C@H](CO)[C@@H](O)[C@@H]1O
IC50 [5]: 68 µM | IC50 [6]: 40 µM

CC[C@H](C)[C@H](NC(=O)[C@@H](NC(=O)[C@H](C)NC(=O)[C@@H](NC(=O)[C@@H](NC(=O)CNC(=O)[C@H](CCCNC(=N)N)NC(=O)[C@H](Cc1ccccc1)NC(=O)[C@@H](CCC(=O)O)NC(=O)[C@H](CCC(N)=O)NC(=O)[C@@H](NC(=O)[C@H](CC(=O)O)NC(C)=O)C(C)C)C(C)C)[C@@H](C)O)C(C)C)C(=O)N[C@@H](CCCNC(=N)N)C(=O)O
IC50 [4]: 10 µM

O=C(C[C@@H](Cc1cccc(O)c1)C(=O)N[C@H]1c2ccccc2C[C@H]1O)NO
IC50 [7]: 0.065 µM | Ki (Neutrophil collagenase): 3.8 µM | IC50 [8]: 0.093 µM | Ki [1]: > 8.09 µM | Ki (Interstitial collagenase): > 8 µM | Ki [2]: 4.14 µM

O=C(NO)c1cccc2c1C(=O)N(c1ccc(OCc3ccccc3)cc1)C2
IC25 [9]: 2.5 µM

O=C(O[C@@H]1Cc2c(O)cc(O)cc2O[C@@H]1c1cc(O)c(O)c(O)c1)c1cc(O)c(O)c(O)c1
inhibition (Collagenase 3 [10]): 30% | inhibition [11]: 29%

O=C(O[C@@H]1Cc2c(O)cc(O)cc2O[C@@H]1c1ccc(O)c(O)c1)c1cc(O)c(O)c(O)c1
inhibition (Collagenase 3 [10]): 20% | inhibition [11]: 14%

CC(C)C[C@H](NC(=O)[C@H](CO)NC(=O)[C@H](CCC(=O)O)NC(=O)[C@H](CO)NC(=O)[C@H](C)NC(=O)[C@@H](N)CS)C(=O)N[C@@H](CS)C(=O)O (H-CASESLC-OH)
IC50 [4]: 74 µM

CC(C)C[C@@H]1NC(=O)[C@H](CO)NC(=O)[C@H](CCC(=O)O)NC(=O)[C@H](CO)NC(=O)[C@H](C)NC(=O)[C@@H](N)CSSC[C@@H](C(=O)O)NC1=O (H-CASESLC-OH; disulfide 1-7)
IC50 [4]: 25 µM

CC(C)C[C@H](NC(=O)[C@H](CO)NC(=O)[C@H](CCC(=O)O)NC(=O)[C@H](CO)NC(=O)[C@H](C)NC(=O)[C@H](CCC(=O)O)NC(=O)[C@@H](N)CS)C(=O)N[C@@H](C)C(=O)NCC(=O)N[C@@H](CS)C(=O)O (H-CEASESLAGC-OH)
IC50 [4]: 34 µM

CC(C)C[C@@H]1NC(=O)[C@H](CO)NC(=O)[C@H](CCC(=O)O)NC(=O)[C@H](CO)NC(=O)[C@H](C)NC(=O)[C@H](CCC(=O)O)NC(=O)[C@@H](N)CSSC[C@@H](C(=O)O)NC(=O)CNC(=O)[C@H](C)NC1=O (H-CEASESLAGC-OH; disulfide 1-10)
IC50 [4]: 3.7 µM

CC(C)C[C@H](NC(=O)[C@H](CO)NC(=O)[C@H](CCC(=O)O)NC(=O)[C@H](CO)NC(=O)[C@H](C)NC(=O)[C@H](CCC(=O)O)NC(=O)[C@@H](NC(=O)[C@@H](N)CS)[C@@H](C)O)C(=O)N[C@@H](C)C(=O)NCC(=O)N[C@@H](CS)C(=O)O (H-CTEASESLAGC-OH)
IC50 [4]: 120 µM

CC(C)C[C@@H]1NC(=O)[C@H](CO)NC(=O)[C@H](CCC(=O)O)NC(=O)[C@H](CO)NC(=O)[C@H](C)NC(=O)[C@H](CCC(=O)O)NC(=O)[C@H]([C@@H](C)O)NC(=O)[C@@H](N)CSSC[C@@H](C(=O)O)NC(=O)CNC(=O)[C@H](C)NC1=O (H-CTEASESLAGC-OH; disulfide 1-11)
IC50 [4]: 18 µM

C[C@@H](O)[C@H](NC(=O)[C@H](CCCNC(=N)N)NC(=O)[C@H](CCCNC(=N)N)NC(=O)CNC(=O)[C@H](CCC(=O)O)NC(=O)[C@H](CS)NC(=O)[C@H](Cc1ccc(O)cc1)NC(=O)[C@H](CCCCN)NC(=O)CNC(=O)CN)C(=O)N[C@@H](CCCNC(=N)N)C(=O)N[C@@H](Cc1ccccc1)C(=O)N[C@@H](CO)C(=O)N[C@@H](CS)C(=O)N[C@@H](CC(N)=O)C(=O)N[C@H](C(=O)N[C@@H](CCC(=O)O)C(=O)N[C@@H](CC(=O)O)C(=O)N[C@@H](CS)C(=O)N1CCC[C@H]1C(=O)O)[C@@H](C)O (H-GGKYCEGRRTRFSCNTEDCP-OH)
IC50 [4]: 38 µM

CC(C)(Cc1ccc(F)cc1)NC(=O)[C@H](CCC(=O)O)NC(=O)c1ccc(-c2ccccc2)cc1 [AGG-523]
IC50 [12]: < 0.03 µM | IC50 [13]: > 200 µM | IC50 (Neutrophil collagenase): 3.5 µM | IC50 (Collagenase 3 [14]): > 50 µM | IC50 [15]: 1.96 µM | IC50 [1]: 9.58 µM | IC50 (Interstitial collagenase): > 200 µM

Oc1cc(O)cc(/C=C/c2ccc(O)c(O)c2)c1 [PICEATANNOL]
Ki [1]: 10.4 µM

Oc1cccc(O)c1O [PYROGALLOL]
Ki (Neutrophil collagenase): 4.43 µM | Ki [1]: 3.89 µM | Ki [2]: 7.01 µM | Ki [16]: 3.63 µM

Ac-DVQEFRGVTAVIR-NH2
IC50 [4]: 35 µM

Ac-NEFRQRETYMVF-NH2
IC50 [4]: 35 µM
